# Experiments:
# [1] = test system: Pioneer hybrid P33G26 corn; experiment: Test H corn injury, herbicide and safener mixtures applied to soil; conditions: in vivo
# Protocol: Mixtures of the herbicide and safeners were applied to pots of a soil mixture previously sown with corn. Pioneer hybrid P33G26 corn was sown in pots containing a sterile mix of 60% sassafras soil and 40% Metro Mix 360® growing medium (pH 6.7, O.M. 2%). Test compounds were dissolved in AGWT (a mixture of 0.25% Tween 20 surfactant, 5% water, 5% glycerin and 89.75% acetone) and sprayed on the soil as pots passed under a stationary 8002E nozzle. Treatments were applied at a 33 gal/acre rate of the AGWT carrier. After treatment, the test pots were placed in the greenhouse and watered. There were two replications for each treatment. Each pot contained eight corn seeds. The pots within each replication were placed in random positions on greenhouse benches. Test plants were fertilized as they were watered with approximately 200 ppm of N (as water soluble 20-20-20 fertilizer) which was metered into the water lines with a fertilizer injector. Daytime temperatures was 23-30° C. and night time temperature was 18-25° C. The test plants were supplemented with artificial lighting. The lights were activated whenever the natural light intensity dropped below the programmed threshold. Day length was maintained for approximately 14 hours.
# The test was evaluated approximately 12 days after treatment. […]
# [2] = test system: giant foxtail; experiment: Test B pre/postemergence giant foxtail; assay type: in vivo, Setaria faberii
# How it was run: (§1)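 Herbicidal effect was estimated by eye on a ten-point control scale after plants spent twelve to sixteen days in a greenhouse following soil or foliar treatment. Foliar sprays targeted plants at one to four leaves; all doses were formulated in a non-phytotoxic solvent with surfactant.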
# [3] = test system: corn; experiment: Test B pre/postemergence corn; assay type: in vivo, Zea mays
# How it was run: as §1
# [4] = test system: morningglory; experiment: Test B pre/postemergence morningglory; assay type: in vivo, Ipomoea hederacea
# How it was run: as §1
# [5] = test system: pigweed; experiment: Test B pre/postemergence pigweed; assay type: in vivo, Amaranthus retroflexus; conditions: for Plant response rating, Redroot pigweed: Postemergence
# How it was run: as §1
# [6] = test system: purple nutsedge; experiment: Test B pre/postemergence purple nutsedge; assay type: in vivo, Cyperus rotundus
# How it was run: as §1
# [7] = test system: sugar beet; experiment: Test B pre/postemergence sugar beet; assay type: in vivo, Beta vulgaris; conditions: for Plant response rating, Sugarbeets: Postemergence
# How it was run: as §1
# [8] = test system: bamyardgrass; experiment: Test B flood test barnyardgrass; assay type: in vivo, Echinochloa crus-galli; conditions: Rate 250 g/ha; Pre-emergence (flood test species); scale 0 to 10, 0 is no effect, 10 is complete control
# How it was run: (§2)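 Read-out is a visual response score from 0 (no effect) to 10 (complete control), assigned by comparison with untreated controls. Treatment was applied at the 2-leaf stage, and plants stayed in the greenhouse for twelve to sixteen days before scoring.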
# [9] = test system: wheat; experiment: Test B pre/postemergence wheat; assay type: in vivo, Triticum aestivum; conditions: for Plant response rating, Wheat: Postemergence
# How it was run: as §1
# [10] = test system: crabgrass; experiment: Test B pre/postemergence crabgrass; assay type: in vivo, Digitaria sanguinalis
# How it was run: as §1
# [11] = test system: rice; experiment: Test B flood test rice; assay type: in vivo, Oryza sativa; conditions: Rate 250 g/ha; Pre-emergence (flood test species); scale 0 to 10, 0 is no effect, 10 is complete control
# How it was run: as §2
# [12] = test system: surinam grass; experiment: Test B pre/postemergence surinam grass; assay type: in vivo, Brachiaria decumbens
# How it was run: as §1
# [13] = test system: duck salad; experiment: Test B flood test duck salad; assay type: in vivo, Heteranthera limosa; conditions: Rate 250 g/ha; Pre-emergence (flood test species); scale 0 to 10, 0 is no effect, 10 is complete control
# How it was run: as §2
# [14] = test system: rape; experiment: Test B pre/postemergence rape; assay type: in vivo, Brassica napus
# How it was run: as §1
# [15] = test system: wild oat; experiment: Test B pre/postemergence wild oat; assay type: in vivo, Avena fatua; conditions: for Plant response rating, Wild oats: Postemergence
# How it was run: as §1
# [16] = test system: smallflower flatsedge; experiment: Test B flood test smallflower flatsedge; assay type: in vivo, Cyperus difformis; conditions: Rate 250 g/ha; Pre-emergence (flood test species); scale 0 to 10, 0 is no effect, 10 is complete control
# How it was run: as §2
# [17] = test system: blackgrass; experiment: Test B pre/postemergence blackgrass; assay type: in vivo, Alopecurus myosuroides
# How it was run: as §1
# [18] = test system: velvetleaf; experiment: Test B pre/postemergence velvetleaf; assay type: in vivo, Abutilon theophrasti; conditions: for Plant response rating, Velvetleaf: Postemergence
# How it was run: as §1
# [19] = test system: cocklebur; experiment: Test B pre/postemergence cocklebur; assay type: in vivo, Xanthium strumarium
# How it was run: as §1
# [20] = test system: soybean; experiment: Test B pre/postemergence soybean; assay type: in vivo, Glycine max; conditions: for Plant response rating, Soybean: Postemergence
# How it was run: as §1
# [21] = test system: bedstraw; experiment: Test B pre/postemergence bedstraw; assay type: in vivo, Galium aparine
# How it was run: as §1
# [22] = Postemergence, Rate 62 g/ha, scale of 0 to 10, 0 is no effect, 10 is complete control
# [23] = Postemergence, Rate 125 g/ha, scale 0 to 10, 0 is no effect, 10 is complete control
# [24] = Postemergence, Rate 500 g/ha, scale of 0 to 10 where 0 is no effect and 10 is complete control
# [25] = Preemergence, Rate 62 g/ha, scale 0 to 10 (0 no effect, 10 complete control)
# [26] = Preemergence, Rate 125 g/ha, scale 0 to 10, 0 is no effect, 10 is complete control
# [27] = Preemergence, Rate 500 g/ha, scale of 0 to 10 where 0 is no effect and 10 is complete control
# [28] = Rate 250 g/ha, Postemergence, scale of 0 to 10 where 0 is no effect and 10 is complete control
# [29] = Rate 500 g/ha, scale of 0 to 10 where 0 is no effect and 10 is complete control
# [30] = Rate 250 g/ha, scale of 0 to 10 where 0 is no effect and 10 is complete control
compound,measurement,setting,value
CC1COc2ccccc2N1C(=O)C(Cl)Cl (stereo not shown) [benoxacor],Safening of Compound 113 on corn,[1],functioned very effectively as safeners
Cc1noc(C)c1Cn1c(=O)on(C(=O)N(c2ccccc2)C(C)C)c1=O [Compound 569],Giant foxtail plant response rating,[2]; [22],0
same,Giant foxtail plant response rating,[2]; [23],3
same,"Plant response rating, Giant foxtail",[2]; [24],4
same,Giant foxtail plant response rating,[2]; [25],9
same,Giant foxtail plant response rating,[2]; [26],9
same,Giant foxtail plant response rating (0 to 10 scale),"[2]; Preemergence, Rate 250 g/ha",9
same,Giant foxtail plant response rating,[2]; [27],10
same,"Plant response rating, Giant foxtail",[2]; [28],4
same,Corn plant response rating,[3]; [22],0
same,Corn plant response rating,[3]; [23],0
same,"Plant response rating, Corn",[3]; [24],2
same,Corn plant response rating,[3]; [25],0
same,Corn plant response rating,[3]; [26],0
same,Corn plant response rating (0 to 10 scale),"[3]; Preemergence, Rate 250 g/ha",0
same,Corn plant response rating,[3]; [27],9
same,"Plant response rating, Corn",[3]; [28],0
same,Morningglory plant response rating,[4]; [22],3
same,Morningglory plant response rating,[4]; [23],10
same,"Plant response rating, Morningglory",[4]; [24],10
same,Morningglory plant response rating,[4]; [25],0
same,Morningglory plant response rating,[4]; [26],0
same,Morningglory plant response rating (0 to 10 scale),"[4]; Preemergence, Rate 250 g/ha",0
same,Morningglory plant response rating,[4]; [27],0
same,"Plant response rating, Morningglory",[4]; [28],10
same,"Plant response rating, Redroot pigweed",[5]; [29],4
same,Redroot pigweed plant response rating,[5]; [25],7
same,Redroot pigweed plant response rating,[5]; [26],9
same,Redroot pigweed plant response rating (0 to 10 scale),"[5]; Preemergence, Rate 250 g/ha",9
same,Redroot pigweed plant response rating,[5]; [27],10
same,"Plant response rating, Redroot pigweed",[5]; [30],4
same,Nutsedge plant response rating,[6]; [22],0
same,Nutsedge plant response rating,[6]; [23],0
same,"Plant response rating, Nutsedge",[6]; [24],0
same,Nutsedge plant response rating,[6]; [25],0
same,Nutsedge plant response rating,[6]; [26],0
same,Nutsedge plant response rating (0 to 10 scale),"[6]; Preemergence, Rate 250 g/ha",0
same,Nutsedge plant response rating,[6]; [27],0
same,"Plant response rating, Nutsedge",[6]; [28],0
same,"Plant response rating, Sugarbeets",[7]; [29],0
same,Sugarbeets plant response rating,[7]; [25],0
same,Sugarbeets plant response rating,[7]; [26],0
same,Sugarbeets plant response rating (0 to 10 scale),"[7]; Preemergence, Rate 250 g/ha",0
same,Sugarbeets plant response rating,[7]; [27],3
same,"Plant response rating, Sugarbeets",[7]; [30],0
same,Barnyardgrass plant response rating,[8],0
same,"Plant response rating, Wheat",[9]; [29],0
same,Wheat plant response rating,[9]; [25],0
same,Wheat plant response rating,[9]; [26],0
same,Wheat plant response rating (0 to 10 scale),"[9]; Preemergence, Rate 250 g/ha",0
same,Wheat plant response rating,[9]; [27],4
same,"Plant response rating, Wheat",[9]; [30],0
same,Crabgrass plant response rating,[10]; [22],0
same,Crabgrass plant response rating,[10]; [23],0
same,"Plant response rating, Crabgrass",[10]; [24],6
same,Crabgrass plant response rating,[10]; [25],7
same,Crabgrass plant response rating,[10]; [26],9
same,Crabgrass plant response rating (0 to 10 scale),"[10]; Preemergence, Rate 250 g/ha",9
same,Crabgrass plant response rating,[10]; [27],9
same,"Plant response rating, Crabgrass",[10]; [28],6
same,Rice plant response rating,[11],0
same,B. signalgrass plant response rating,[12]; [22],0
same,B. signalgrass plant response rating,[12]; [23],0
same,"Plant response rating, B. signalgrass",[12]; [24],4
same,B. signalgrass plant response rating,[12]; [25],0
same,B. signalgrass plant response rating,[12]; [26],9
same,"B. signalgrass plant response rating (0 to 10 scale, 0 is no effect, 10 is complete control)","[12]; Preemergence, Rate 250 g/ha",9
same,B. signalgrass plant response rating,[12]; [27],9
same,"Plant response rating, B. signalgrass",[12]; [28],0
same,Ducksalad plant response rating,[13],0
same,Rape plant response rating,[14]; [22],0
same,Rape plant response rating,[14]; [23],0
same,"Plant response rating, Rape",[14]; [24],0
same,Rape plant response rating,[14]; [25],0
same,Rape plant response rating,[14]; [26],0
same,Rape plant response rating (0 to 10 scale),"[14]; Preemergence, Rate 250 g/ha",4
same,Rape plant response rating,[14]; [27],9
same,"Plant response rating, Rape",[14]; [28],0
same,"Plant response rating, Wild oats",[15]; [29],0
same,Wild oats plant response rating,[15]; [25],0
same,Wild oats plant response rating,[15]; [26],0
same,Wild oats plant response rating (0 to 10 scale),"[15]; Preemergence, Rate 250 g/ha",6
same,Wild oats plant response rating,[15]; [27],9
same,"Plant response rating, Wild oats",[15]; [30],0
same,S. Flatsedge plant response rating,[16],0
same,Blackgrass plant response rating,[17]; [22],0
same,Blackgrass plant response rating,[17]; [23],0
same,"Plant response rating, Blackgrass",[17]; [24],3
same,Blackgrass plant response rating,[17]; [25],0
same,Blackgrass plant response rating,[17]; [26],0
same,Blackgrass plant response rating (0 to 10 scale),"[17]; Preemergence, Rate 250 g/ha",9
same,Blackgrass plant response rating,[17]; [27],9
same,"Plant response rating, Blackgrass",[17]; [28],2
same,"Plant response rating, Velvetleaf",[18]; [29],3
same,Velvetleaf plant response rating,[18]; [25],0
same,Velvetleaf plant response rating,[18]; [26],0
same,Velvetleaf plant response rating (0 to 10 scale),"[18]; Preemergence, Rate 250 g/ha",0
same,Velvetleaf plant response rating,[18]; [27],7
same,"Plant response rating, Velvetleaf",[18]; [30],2
same,Cocklebur plant response rating,[19]; [22],0
same,Cocklebur plant response rating,[19]; [23],2
same,"Plant response rating, Cocklebur",[19]; [24],2
same,Cocklebur plant response rating,[19]; [25],0
same,Cocklebur plant response rating,[19]; [26],0
same,Cocklebur plant response rating (0 to 10 scale),"[19]; Preemergence, Rate 250 g/ha",0
same,Cocklebur plant response rating,[19]; [27],0
same,"Plant response rating, Cocklebur",[19]; [28],2
same,"Plant response rating, Soybean",[20]; [29],4
same,Soybean plant response rating,[20]; [25],0
same,Soybean plant response rating,[20]; [26],0
same,Soybean plant response rating (0 to 10 scale),"[20]; Preemergence, Rate 250 g/ha",0
same,Soybean plant response rating,[20]; [27],0
same,"Plant response rating, Soybean",[20]; [30],4
same,Bedstraw plant response rating,[21]; [22],0
same,Bedstraw plant response rating,[21]; [25],0
same,Bedstraw plant response rating,[21]; [26],3
same,Bedstraw plant response rating (0 to 10 scale),"[21]; Preemergence, Rate 250 g/ha",0
same,Bedstraw plant response rating,[21]; [27],0
